Experimental findings from US11078201B2, “Substituted isoindolin-1-ones and 2,3-dihydro-1H-pyrrol[3,4-c]pyridin-1-ones as HPK1 antagonists” (Nimbus Saturn, Inc., priority 2019, dated 2021) are described below.

Some results are limits rather than exact numbers.

What is called IC50 is the midpoint of a concentration-inhibition curve.

The assay has as its target HPK1 (Homo sapiens (Human), UniProt Q92918). Description: HPK1 biochemical enzyme assay (microfluidic mobility shift assay). Conditions: 1.5 nM HPK1, ATP 1 mM final, 60 min at RT, Caliper EZ Reader; read-out: HPK1 1000UMATP caliper IC50. How it is done:
HPK1 biochemical enzyme assay: HPK1 enzyme inhibition was measured using a microfluidic mobility shift assay. […] Test compounds were titrated in ten point curves (top final assay concentration […]), and preincubated with enzyme/substrate mix for 30 min prior to initiation of the reaction by addition of ATP (1 mM final concentration) and substrate (1 μM final concentration; Carna Biosciences) diluted in assay buffer supplemented by MgCl2 (final assay concentration of 5 mM). Following 60 min incubation at RT, the reaction was terminated by addition of 60 µl/well termination buffer (Carna Biosciences) and signal determination using a Caliper EZ Reader (Perkin Elmer, UK).
The compound numbers correspond to the compound numbers in Table 1.

Chain of HPK1 (Q92918 whole entry): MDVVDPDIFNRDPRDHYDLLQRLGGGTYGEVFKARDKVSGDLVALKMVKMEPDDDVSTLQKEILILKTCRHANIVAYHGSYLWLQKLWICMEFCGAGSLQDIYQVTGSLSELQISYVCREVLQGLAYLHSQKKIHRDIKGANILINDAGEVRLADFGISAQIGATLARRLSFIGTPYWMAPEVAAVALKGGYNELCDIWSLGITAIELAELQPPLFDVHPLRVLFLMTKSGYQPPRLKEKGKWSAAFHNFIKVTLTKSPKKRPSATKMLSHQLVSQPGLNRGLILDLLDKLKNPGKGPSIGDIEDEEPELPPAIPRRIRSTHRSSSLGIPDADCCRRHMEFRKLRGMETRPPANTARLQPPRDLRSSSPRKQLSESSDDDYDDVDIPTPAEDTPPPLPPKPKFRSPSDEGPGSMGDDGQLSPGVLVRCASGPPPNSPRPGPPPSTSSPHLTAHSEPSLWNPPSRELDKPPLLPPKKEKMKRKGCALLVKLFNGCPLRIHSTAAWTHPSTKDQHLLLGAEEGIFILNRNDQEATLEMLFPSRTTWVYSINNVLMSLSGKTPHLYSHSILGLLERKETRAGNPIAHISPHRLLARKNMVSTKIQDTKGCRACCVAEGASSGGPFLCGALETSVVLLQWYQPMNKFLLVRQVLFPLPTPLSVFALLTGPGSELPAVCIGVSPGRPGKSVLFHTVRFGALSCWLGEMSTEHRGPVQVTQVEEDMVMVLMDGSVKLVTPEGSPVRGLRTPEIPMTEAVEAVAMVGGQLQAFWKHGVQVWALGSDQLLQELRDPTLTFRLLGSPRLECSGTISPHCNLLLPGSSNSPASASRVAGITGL

For “4-(8-fluoro-7- methyl-imidazo[1,2- a]pyridin-3- yl)-7-[[5- (morpholino- methyl)-2- pyridyl]amino] isoindolin-1-one [I-468]”, the half-inhibitory concentration (IC50) was under 0.1 µM.

Turning to “4-[7-(hydroxymeth- yl)imidazo[1,2- a]pyridin-3- yl]-7-[(5- morpholino-2- pyridyl)amino] isoindolin-1-one [I-196]”, the IC50 was under 0.1 µM.
